Measured values: US12414952B2 (Merck Sharp & Dohme LLC, priority 2018, dated 2025)

Assays:
[1] = biological target: human A2a adenosine receptor (Homo sapiens (Human), UniProt P29274); assay: A2a binding affinity using radioligand binding, Method (A); details: Method (A): [3H]SCH58261 filtration binding
Procedure, shortened: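 Membranes from HEK293 or CHO cells expressing human A2a were preincubated with compound for 15–30 min at room temperature. [3H]SCH58261 was then added (4 nM working dilution) in 50 mM Tris pH 7.4, 10 mM MgCl2, 0.005% Tween20 for 60 min at room temperature. Bound radioactivity after filtration was normalised to total and non-specific binding, and IC50 came from 4-parameter logistic fits.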

[2] = biological target: human A2b adenosine receptor (Homo sapiens (Human), UniProt P29275); assay: A2b binding affinity, radioligand filtration binding assay; details: tritiated proprietary A2b antagonist, HEK293 membranes
Chain of human A2b adenosine receptor (P29275 whole entry): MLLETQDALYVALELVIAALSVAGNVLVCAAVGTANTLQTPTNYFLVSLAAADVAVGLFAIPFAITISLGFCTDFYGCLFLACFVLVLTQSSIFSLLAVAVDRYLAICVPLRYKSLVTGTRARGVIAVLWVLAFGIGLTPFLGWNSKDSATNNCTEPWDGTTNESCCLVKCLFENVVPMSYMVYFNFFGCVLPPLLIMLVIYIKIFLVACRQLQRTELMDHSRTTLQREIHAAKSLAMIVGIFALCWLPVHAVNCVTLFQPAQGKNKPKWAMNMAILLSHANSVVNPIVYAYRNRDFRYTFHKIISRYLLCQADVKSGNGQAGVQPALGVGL
Protocol: Measurement of A2b Binding Affinity
The reported affinity of the compounds of the invention for the human A2b adenosine receptor was determined experimentally using a radioligand filtration binding assay. This assay measures the amount of binding of a tritiated proprietary A2b receptor antagonist, in the presence and absence of a compound of the invention, to membranes made from HEK293 cells recombinantly expressing the human A2b adenosine receptor (Perkin Elmer, Cat. No. ES-013-C).
The filter plate was incubated for at least 1 h at 55° C. and allowed to dry. The bottom of the filter plate was then sealed with backing tape. […] The plates were then incubated for at least 20 min, and then the amount of radioactivity remaining in each well was determined using a TopCount® (Perkin Elmer) scintillation counter. After normalization to total and non-specific binding, the percent effect at each compound concentration was calculated. The plot of percent effect versus the log of compound concentration was analyzed electronically using a 4-parameter logistic fit based on the Levenberg-Marquardt algorithm to generate IC50 values.

Chain of human A2a adenosine receptor (P29274 whole entry): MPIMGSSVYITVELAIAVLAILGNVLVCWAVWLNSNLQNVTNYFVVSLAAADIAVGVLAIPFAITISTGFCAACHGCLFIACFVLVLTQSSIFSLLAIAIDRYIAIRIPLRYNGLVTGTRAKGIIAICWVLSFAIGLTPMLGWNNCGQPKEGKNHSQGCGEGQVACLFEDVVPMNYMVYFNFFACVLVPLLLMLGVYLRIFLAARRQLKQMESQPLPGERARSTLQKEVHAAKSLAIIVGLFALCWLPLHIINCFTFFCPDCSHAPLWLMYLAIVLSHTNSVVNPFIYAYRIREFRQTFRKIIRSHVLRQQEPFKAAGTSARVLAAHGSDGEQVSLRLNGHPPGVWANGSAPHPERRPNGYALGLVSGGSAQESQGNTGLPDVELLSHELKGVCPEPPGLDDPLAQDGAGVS

SMILES | IC50 [1] | IC50 [2]
Cc1c(-c2ncco2)nc(N)n2nc(CN3CCc4cccnc43)nc12 [Example 10.3, 2-((2,3-dihydro-1H-pyrrolo[2,3-b]pyridin-1-yl)methyl)-8-methyl-7-(oxazol-2-yl)-[1,2,4]triazolo[1,5-c]pyrimidin-5-amine] | 0.0004 µM | 0.0145 µM
Cc1c(-c2ncco2)nc(N)n2nc(CNCc3ccc(C(F)(F)F)cn3)nc12 [Example 10.4, 8-methyl-7-(oxazol-2-yl)-2-((((5-(trifluoromethyl)pyridin-2-yl)methyl)amino)methyl)-[1,2,4]triazolo[1,5-c]pyrimidin-5-amine] | 0.156 µM | 0.33 µM
Cc1c(-c2cccc(F)c2)nc(N)n2nc(CNCc3ccc(C(F)(F)F)cc3)nc12 [Example 10.5, 7-(3-fluorophenyl)-8-methyl-2-(((4-(trifluoromethyl)benzyl)amino)methyl)-[1,2,4]triazolo[1,5-c]pyrimidin-5-amine] | 0.163 µM | 0.157 µM
Cc1c(-c2ncco2)nc(N)n2nc(CNCc3ccc(C(C)(C)O)cc3)nc12 [Example 11.2, 2-(4-((((5-amino-8-methyl-7-(oxazol-2-yl)-[1,2,4]triazolo[1,5-c]pyrimidin-2-yl)methyl)amino)methyl)phenyl)propan-2-ol] | 0.0011 µM | 0.0626 µM
Cc1c(-c2ncco2)nc(N)n2nc(CNCc3ccc(C(C)(C)O)cn3)nc12 [Example 11.3, 2-(6-((((5-amino-8-methyl-7-(oxazol-2-yl)-[1,2,4]triazolo[1,5-c]pyrimidin-2-yl)methyl)amino)methyl)pyridin-3-yl)propan-2-ol] | 0.0155 µM | 0.0406 µM
Cc1c(-c2ncco2)nc(N)n2nc(CNCc3ccc(C(C)(C)O)nc3)nc12 [Example 11.4, 2-(5-((((5-amino-8-methyl-7-(oxazol-2-yl)-[1,2,4]triazolo[1,5-c]pyrimidin-2-yl)methyl)amino)methyl)pyridin-2-yl)propan-2-ol] | 0.0054 µM | 0.744 µM
Cc1c(-c2ncco2)nc(N)n2nc(CNCc3cnn(CC(C)(C)O)c3)nc12 [Example 11.5, 1-(4-((((5-amino-8-methyl-7-(oxazol-2-yl)-[1,2,4]triazolo[1,5-c]pyrimidin-2-yl)methyl)amino)methyl)-1H-pyrazol-1-yl)-2-methylpropan-2-ol] | 0.0152 µM | 1.32 µM
Cc1c(-c2ncco2)nc(N)n2nc(CN(Cc3ccc(C(F)(F)F)cc3)CC(F)F)nc12 [Example 12.3] | 0.0007 µM | 1.99 µM
Cc1c(-c2ncco2)nc(N)n2nc(CN(Cc3ccc(C(C)(C)O)cc3)CC(F)F)nc12 [Example 13.1, 2-(4-((((5-amino-8-methyl-7-(oxazol-2-yl)-[1,2,4]triazolo[1,5-c]pyrimidin-2-yl)methyl)(2,2-difluoroethyl)amino)methyl)phenyl)propan-2-ol] | 0.0004 µM | 0.489 µM

Next, values leading:

IC50 [1] | IC50 [2] | SMILES
0.0073 µM | 0.151 µM | Cc1c(-c2ncco2)nc(N)n2nc(CCS(=O)(=O)C3CC3)nc12 [Example 15.3, 2-(2-(cyclopropylsulfonyl)ethyl)-8-methyl-7-(oxazol-2-yl)-[1,2,4]triazolo[1,5-c]pyrimidin-5-amine]
0.0193 µM | 0.453 µM | Cc1c(-c2cccc(F)c2)nc(N)n2nc(CCS(=O)(=O)C3CC3)nc12 [Example 16.2, 2-(2-(cyclopropylsulfonyl)ethyl)-7-(3-fluorophenyl)-8-methyl-[1,2,4]triazolo[1,5-c]pyrimidin-5-amine]
0.0004 µM | 0.0203 µM | Cc1c(-c2ncco2)nc(N)n2nc(CCN3CCn4c(cnc4C4CC(F)(F)C4)C3)nc12 [Example 17.2, 2-(2-(3-(3,3-difluorocyclobutyl)-5,6-dihydroimidazo[1,5-a]pyrazin-7(8H)-yl)ethyl)-8-methyl-7-(oxazol-2-yl)-[1,2,4]triazolo[1,5-c]pyrimidin-5-amine]
0.0042 µM | 0.0177 µM | Cc1c(-c2ncco2)nc(N)n2nc(CCN3CCn4c(cnc4C4CCCC4)C3)nc12 [Example 17.3, 2-(2-(3-cyclopentyl-5,6-dihydroimidazo[1,5-a]pyrazin-7(8H)-yl)ethyl)-8-methyl-7-(oxazol-2-yl)-[1,2,4]triazolo[1,5-c]pyrimidin-5-amine]
0.0094 µM | 1.43 µM | Cc1c(-c2ncco2)nc(N)n2nc(CCN3Cc4cn(CC(C)(C)O)nc4C3)nc12 [Example 17.4, 1-(5-(2-(5-amino-8-methyl-7-(oxazol-2-yl)-[1,2,4]triazolo[1,5-c]pyrimidin-2-yl)ethyl)-5,6-dihydropyrrolo[3,4-c]pyrazol-2(4H)-yl)-2-methylpropan-2-ol]
0.0436 µM | 0.688 µM | Cc1c(-c2ncco2)nc(N)n2nc(CCN3Cc4cnn(C)c4C3)nc12 [Example 17.5, 8-methyl-2-(2-(1-methyl-4,6-dihydropyrrolo[3,4-c]pyrazol-5(1H)-yl)ethyl)-7-(oxazol-2-yl)-[1,2,4]triazolo[1,5-c]pyrimidin-5-amine]
0.0163 µM | 0.677 µM | Cc1cc2n(n1)CCN(CCc1nc3c(C)c(-c4ncco4)nc(N)n3n1)C2 [Example 17.6, 8-methyl-2-(2-(2-methyl-6,7-dihydropyrazolo[1,5-a]pyrazin-5(4H)-yl)ethyl)-7-(oxazol-2-yl)-[1,2,4]triazolo[1,5-c]pyrimidin-5-amine]
0.0006 µM | 0.0178 µM | Cc1c(-c2ncco2)nc(N)n2nc(CCN3CCn4c(cnc4C45CC(C4)C5)C3)nc12 [Example 17.7, 2-(2-(3-(bicyclo[1.1.1]pentan-1-yl)-5,6-dihydroimidazo[1,5-a]pyrazin-7(8H)-yl)ethyl)-8-methyl-7-(oxazol-2-yl)-[1,2,4]triazolo[1,5-c]pyrimidin-5-amine]
0.0041 µM | 0.097 µM | Cc1c(-c2ncco2)nc(N)n2nc(CCN3CCc4nn(C5CC(F)(F)C5)cc4C3)nc12 [Example 17.9, 2-(2-(2-(3,3-difluorocyclobutyl)-2,4,6,7-tetrahydro-5H-pyrazolo[4,3-c]pyridin-5-yl)ethyl)-8-methyl-7-(oxazol-2-yl)-[1,2,4]triazolo[1,5-c]pyrimidin-5-amine]
0.0006 µM | 0.0206 µM | Cc1c(-c2ncco2)nc(N)n2nc(CCN3CCc4c(cnn4C4CC(F)(F)C4)C3)nc12 [Example 17.10, 2-(2-(1-(3,3-difluorocyclobutyl)-1,4,6,7-tetrahydro-5H-pyrazolo[4,3-c]pyridin-5-yl)ethyl)-8-methyl-7-(oxazol-2-yl)-[1,2,4]triazolo[1,5-c]pyrimidin-5-amine]
0.0013 µM | 0.301 µM | Cc1c(-c2ncco2)nc(N)n2nc(CCN3CCc4nn(C5CCCC5)cc4C3)nc12 [Example 17.11, 2-(2-(2-cyclopentyl-2,4,6,7-tetrahydro-5H-pyrazolo[4,3-c]pyridin-5-yl)ethyl)-8-methyl-7-(oxazol-2-yl)-[1,2,4]triazolo[1,5-c]pyrimidin-5-amine]
0.0012 µM | 0.045 µM | Cc1c(-c2ncco2)nc(N)n2nc(CCN3CCc4c(cnn4C4CCCC4)C3)nc12 [Example 17.12, 2-(2-(1-cyclopentyl-1,4,6,7-tetrahydro-5H-pyrazolo[4,3-c]pyridin-5-yl)ethyl)-8-methyl-7-(oxazol-2-yl)-[1,2,4]triazolo[1,5-c]pyrimidin-5-amine]
0.0007 µM | 0.0081 µM | Cc1c(-c2ncco2)nc(N)n2nc(CCN3CCc4c(nnn4C4CCCC4)C3)nc12 [Example 17.13, 2-(2-(1-cyclopentyl-1,4,6,7-tetrahydro-5H-[1,2,3]triazolo[4,5-c]pyridin-5-yl)ethyl)-8-methyl-7-(oxazol-2-yl)-[1,2,4]triazolo[1,5-c]pyrimidin-5-amine]
0.0005 µM | 0.0417 µM | Cc1c(-c2ncco2)nc(N)n2nc(CCN3CCc4c(nnn4C4CC(F)(F)C4)C3)nc12 [Example 17.14, 2-(2-(1-(3,3-difluorocyclobutyl)-1,4,6,7-tetrahydro-5H-[1,2,3]triazolo[4,5-c]pyridin-5-yl)ethyl)-8-methyl-7-(oxazol-2-yl)-[1,2,4]triazolo[1,5-c]pyrimidin-5-amine]
0.0022 µM | 0.032 µM | Cc1c(-c2ncco2)nc(N)n2nc(CCN3CCc4c(nnn4C45CC(C4)C5)C3)nc12 [Example 17.15, 2-(2-(1-(bicyclo[1.1.1]pentan-1-yl)-1,4,6,7-tetrahydro-5H-[1,2,3]triazolo[4,5-c]pyridin-5-yl)ethyl)-8-methyl-7-(oxazol-2-yl)-[1,2,4]triazolo[1,5-c]pyrimidin-5-amine]
0.0012 µM | 1.1 µM | Cc1c(-c2ncco2)nc(N)n2nc(CCN3CCCC(F)(F)C3)nc12 [Example 17.16, 2-(2-(3,3-difluoropiperidin-1-yl)ethyl)-8-methyl-7-(oxazol-2-yl)-[1,2,4]triazolo[1,5-c]pyrimidin-5-amine]
0.0349 µM | 9.67 µM | CCOC(=O)c1cnn(CCc2nc3c(C)c(-c4ncco4)nc(N)n3n2)c1 [Example 17.17, ethyl 1-(2-(5-amino-8-methyl-7-(oxazol-2-yl)-[1,2,4]triazolo[1,5-c]pyrimidin-2-yl)ethyl)-1H-pyrazole-4-carboxylate]
0.0135 µM | 0.117 µM | Nc1nc(-c2cc(F)ccc2F)c(C2CC2)n2nc(Cc3ccccc3)nc12 [Example 20.5, 2-benzyl-5-cyclopropyl-6-(2,5-difluorophenyl)-[1,2,4]triazolo[1,5-a]pyrazin-8-amine]
